The values that follow come from ChEMBL document CHEMBL2385054, “Lead optimization of a 4-aminopyridine benzamide scaffold to identify potent, selective, and orally bioavailable TYK2 inhibitors” (J Med Chem, 2013).

Data set [1] deals with Tyrosine-protein kinase Lck (Homo sapiens) (UniProt P06239). Conditions: 180 nM.
The target in data set [2] is Cyclin-dependent kinase 5 (Homo sapiens) (UniProt Q00535). The settings on record: 180 nM.
For another data set, the species on record is Homo sapiens. Conditions: 180 nM.
Data set [3] deals with Ribosomal protein S6 kinase alpha-3 (Homo sapiens) (UniProt P51812). Conditions: 180 nM.
Ribosomal protein S6 kinase alpha-3 (Homo sapiens), sequence (P51812 whole entry): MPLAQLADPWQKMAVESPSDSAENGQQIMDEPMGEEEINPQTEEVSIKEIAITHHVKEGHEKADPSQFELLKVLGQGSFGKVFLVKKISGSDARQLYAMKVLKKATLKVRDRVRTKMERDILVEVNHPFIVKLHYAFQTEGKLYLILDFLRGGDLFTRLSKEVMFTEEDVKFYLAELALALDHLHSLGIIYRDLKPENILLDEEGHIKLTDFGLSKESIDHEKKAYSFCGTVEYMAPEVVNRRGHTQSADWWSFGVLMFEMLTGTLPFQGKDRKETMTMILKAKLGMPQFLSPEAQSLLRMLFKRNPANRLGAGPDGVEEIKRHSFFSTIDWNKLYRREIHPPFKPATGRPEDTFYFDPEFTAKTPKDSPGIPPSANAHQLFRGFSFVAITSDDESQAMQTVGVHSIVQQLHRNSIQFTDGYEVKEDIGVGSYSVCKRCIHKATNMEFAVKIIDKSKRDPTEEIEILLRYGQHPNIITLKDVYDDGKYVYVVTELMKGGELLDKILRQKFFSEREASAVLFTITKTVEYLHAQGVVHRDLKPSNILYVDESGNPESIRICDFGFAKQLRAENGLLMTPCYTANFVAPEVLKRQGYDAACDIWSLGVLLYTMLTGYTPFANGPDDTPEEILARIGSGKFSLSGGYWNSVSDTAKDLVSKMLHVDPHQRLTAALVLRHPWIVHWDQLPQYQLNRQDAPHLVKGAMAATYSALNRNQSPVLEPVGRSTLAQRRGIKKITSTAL
Data set [4] deals with Ribosomal protein S6 kinase alpha-6 (Homo sapiens) (UniProt Q9UK32). Conditions: 180 nM.
Ribosomal protein S6 kinase alpha-6 (Homo sapiens), sequence (Q9UK32 whole entry): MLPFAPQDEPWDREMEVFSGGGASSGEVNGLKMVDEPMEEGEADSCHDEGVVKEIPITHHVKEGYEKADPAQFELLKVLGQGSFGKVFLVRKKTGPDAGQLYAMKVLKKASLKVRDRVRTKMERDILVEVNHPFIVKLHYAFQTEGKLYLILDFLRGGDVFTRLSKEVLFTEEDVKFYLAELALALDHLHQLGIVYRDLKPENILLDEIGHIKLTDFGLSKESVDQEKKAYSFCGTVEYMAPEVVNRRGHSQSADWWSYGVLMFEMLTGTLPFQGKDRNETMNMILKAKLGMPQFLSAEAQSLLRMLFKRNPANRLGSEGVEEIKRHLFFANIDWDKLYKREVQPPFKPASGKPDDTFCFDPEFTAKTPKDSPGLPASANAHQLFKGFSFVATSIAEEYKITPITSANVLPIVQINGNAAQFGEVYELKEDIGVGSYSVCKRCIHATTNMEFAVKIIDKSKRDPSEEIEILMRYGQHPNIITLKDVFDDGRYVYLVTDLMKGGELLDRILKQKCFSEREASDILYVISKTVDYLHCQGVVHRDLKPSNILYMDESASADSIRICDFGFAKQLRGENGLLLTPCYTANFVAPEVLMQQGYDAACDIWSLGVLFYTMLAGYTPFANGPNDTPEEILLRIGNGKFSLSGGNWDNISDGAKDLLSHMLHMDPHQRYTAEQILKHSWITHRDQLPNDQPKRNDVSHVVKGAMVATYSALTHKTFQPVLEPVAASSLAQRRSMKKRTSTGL
Data set [5] concerns the target Ribosomal protein S6 kinase alpha-2 (Homo sapiens) (UniProt Q15349). Conditions: 180 nM.
Data set [6] can be described thus: in vivo. The settings on record: CD1, mouse, po, 100 mg/kg.
Data set [7] is described as follows: in vivo. The settings on record: CD1, mouse, plasma, po, 100 mg/kg.
Data set [8] is described as follows: in vivo. The settings on record: CD1, mouse, iv, 1 mg/kg.
Data set [9] in a line: in vivo. Conditions: CD1, mouse, po, 5 mg/kg.
A short description of data set [10]: in vivo. Conditions: CD1, mouse.
Data set [11] in a line: in vivo. Conditions: CD1, mouse, plasma, iv, 1 mg/kg.
A short description of data set [12]: in vivo. Conditions: Sprague-Dawley, rat, po, 5 mg/kg.
Data set [13] in a line: in vivo. Conditions: Sprague-Dawley, rat, iv, 1 mg/kg.
Data set [14] is described as follows: in vivo. Conditions: Sprague-Dawley, rat.
A short description of data set [15]: in vivo. The settings on record: Sprague-Dawley, rat, plasma, iv, 1 mg/kg.
Data set [16] in a line: in vitro. Conditions: human, liver microsomes.
Data set [17] in a line: in vitro. Conditions: rat, liver microsomes.
Data set [18] in a line: in vitro. Conditions: mouse, liver microsomes.
Data set [19] can be described thus: in vitro. The settings on record: human, liver microsomes. The source holds these as a separate data set.
A short description of data set [20]: in vitro. Conditions: rat, plasma.
Data set [21] can be described thus: in vitro. The settings on record: mouse, plasma.
Data set [22] is described as follows: in vitro. Conditions: human, plasma.
A short description of data set [23]: in vitro. Conditions: dog, MDCK.
The nature of data set [24]: in vitro. The settings on record: dog, MDCK. This is another data set of the same source.
A short description of data set [25]: physchem. The settings on record: PBS buffer, pH 7.4.
The nature of data set [26]: physchem. The settings on record: octanol/aqueous buffer, pH 7.4.
Data set [27] is filed under the species Mus musculus. Kind of data set: animal or person. The settings on record: C57BL/6, po, read-out: INH.
The species entered for data set [28] is Mus musculus. Briefly: animal or person. The settings on record: C57BL/6, po, read-out: INH. The source holds these as a separate data set.
Data set [29] is filed under the species Mus musculus. Briefly: animal or person. Conditions: C57BL/6, po, read-out: INH. This is another data set of the same source.
For data set [30], the species on record is Mus musculus. Kind of data set: animal or person. Conditions: C57BL/6, po, read-out: INH. The source holds these as a separate data set.
Data set [31] is described as follows: in vivo. The settings on record: CD1, mouse, plasma, iv, 1 mg/kg. The source holds these as a separate data set.
Data set [32] is described as follows: in vivo. Conditions: CD1, mouse, plasma, po, 5 mg/kg.

≈ marks a conversion by molar mass, not a printed value.

Ribosomal protein S6 kinase alpha-2 (Homo sapiens), sequence (Q15349 whole entry): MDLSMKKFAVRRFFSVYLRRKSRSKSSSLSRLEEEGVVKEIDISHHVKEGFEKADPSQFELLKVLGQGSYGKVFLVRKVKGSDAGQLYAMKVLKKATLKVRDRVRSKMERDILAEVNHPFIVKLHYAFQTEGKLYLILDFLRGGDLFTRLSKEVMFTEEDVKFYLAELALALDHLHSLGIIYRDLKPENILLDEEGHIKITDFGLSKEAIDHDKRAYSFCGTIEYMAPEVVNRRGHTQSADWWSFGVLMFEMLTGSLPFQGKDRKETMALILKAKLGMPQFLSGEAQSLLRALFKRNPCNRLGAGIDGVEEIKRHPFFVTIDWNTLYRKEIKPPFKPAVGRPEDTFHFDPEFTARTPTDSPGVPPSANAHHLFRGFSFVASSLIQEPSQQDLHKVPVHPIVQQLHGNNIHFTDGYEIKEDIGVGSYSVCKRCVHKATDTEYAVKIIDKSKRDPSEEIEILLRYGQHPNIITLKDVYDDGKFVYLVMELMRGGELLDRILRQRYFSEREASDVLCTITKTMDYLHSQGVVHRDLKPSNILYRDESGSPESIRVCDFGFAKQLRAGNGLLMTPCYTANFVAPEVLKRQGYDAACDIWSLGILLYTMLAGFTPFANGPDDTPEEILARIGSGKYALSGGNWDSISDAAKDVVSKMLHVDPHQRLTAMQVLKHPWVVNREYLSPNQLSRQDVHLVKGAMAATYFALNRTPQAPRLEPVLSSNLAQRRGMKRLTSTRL
Tyrosine-protein kinase Lck (Homo sapiens), sequence (P06239 2-509 limits assumed): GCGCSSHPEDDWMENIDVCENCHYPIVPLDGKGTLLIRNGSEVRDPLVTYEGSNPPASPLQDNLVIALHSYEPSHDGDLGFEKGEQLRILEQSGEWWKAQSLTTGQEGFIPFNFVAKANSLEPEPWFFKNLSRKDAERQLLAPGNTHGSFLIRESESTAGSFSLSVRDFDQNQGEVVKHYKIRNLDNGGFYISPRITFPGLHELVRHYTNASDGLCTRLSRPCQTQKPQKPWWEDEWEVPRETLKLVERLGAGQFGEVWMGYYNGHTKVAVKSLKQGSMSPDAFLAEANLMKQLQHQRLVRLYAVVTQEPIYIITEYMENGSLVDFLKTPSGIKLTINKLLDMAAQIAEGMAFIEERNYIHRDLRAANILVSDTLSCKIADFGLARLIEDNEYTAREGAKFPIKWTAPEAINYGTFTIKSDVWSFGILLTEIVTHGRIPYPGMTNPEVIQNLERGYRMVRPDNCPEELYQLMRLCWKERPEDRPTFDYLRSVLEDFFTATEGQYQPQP
Cyclin-dependent kinase 5 (Homo sapiens), sequence (Q00535 whole entry, looked up): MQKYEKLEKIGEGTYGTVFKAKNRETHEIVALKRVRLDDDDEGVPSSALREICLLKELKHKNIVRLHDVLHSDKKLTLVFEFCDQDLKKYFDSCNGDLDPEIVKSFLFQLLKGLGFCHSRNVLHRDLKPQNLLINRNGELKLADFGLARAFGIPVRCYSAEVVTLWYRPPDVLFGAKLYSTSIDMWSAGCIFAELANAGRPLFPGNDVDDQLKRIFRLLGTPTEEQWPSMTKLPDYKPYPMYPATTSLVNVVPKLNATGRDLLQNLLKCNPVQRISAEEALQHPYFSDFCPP

Regarding `N#Cc1cc(Cl)c(C(=O)Nc2ccnc(NC(=O)C3CC3)c2)c(Cl)c1`, the inhibition turned out to be 61% in data set [1]; 61% in data set [2]; 68% in the data set listed under Homo sapiens; 73% in data set [3]; 80% in data set [4]; 80% in data set [5]. For the same compound, the highest level in the data set “in vivo [6]” (Cmax) was 119 µM. In “in vivo [7]”, this compound came in with an area under the curve (AUC) of 818 µM·h. Besides, the figures for the Vd in the data set “in vivo [8]” and in the data set “in vivo [13]” were 0.9 L/kg and 0.8 L/kg, respectively. The bioavailability came to 100% in “in vivo [9]” and 86% in “in vivo [12]”. The half-life is 1 h in the data set “in vivo [10]” and 4.2 h in the data set “in vivo [14]”. In addition, the clearance in the data set “in vivo [11]” was 0.78 L/h/kg; in “in vivo [15]”, 0.186 L/h/kg. Besides, in the data set “in vitro [16]”, the metabolised is below 2%. In addition, the figures for the CLhep predicted in the data set “in vitro [17]”, in the data set “in vitro [18]” and in the data set “in vitro [19]” were 0.72 L/h/kg, 2.28 L/h/kg and 0.48 L/h/kg, respectively. Further, the unbound share (fraction unbound) in the data set “in vitro [20]” is 0.059; in the data set “in vitro [21]” it was 0.032; in “in vitro [22]”, 0.022. Besides, the efflux ratio in “in vitro [23]” stood at 1. In the data set “in vitro [24]”, this compound registered an apparent permeability from apical to basolateral (Papp A→B) of 150 nm/s. The same compound gave a solubility in “physchem [25]” of 0.064 mg/mL (≈ 171 µM). In “physchem [26]”, the pH-dependent lipophilicity (logD) is 3.2.

The compound `O=C(Nc1ccnc(NC(=O)C2CC2)c1)c1c(Cl)cc(-c2cn[nH]c2)cc1Cl` registered a solubility in “physchem [25]” of 0.001 mg/mL (≈ 2.4 µM).

On to `N#Cc1cc(F)c(C(=O)Nc2ccnc(NC(=O)[C@H]3C[C@H]3F)c2)c(Cl)c1`, for which the maximum concentration (Cmax) in “in vivo [6]” was 108 µM. Besides, the area under the curve (AUC) in the data set “in vivo [7]” was 917 µM·h. This compound also came in with a bioavailability in “in vivo [12]” of 70%. In “in vivo [13]”, the Vd worked out at 2.3 L/kg. Further, the half-life in the data set “in vivo [14]” was 40 h. This compound also yielded a clearance in “in vivo [15]” of 0.06 L/h/kg. Moreover, the figures for the CLhep predicted in the data set “in vitro [17]”, in the data set “in vitro [18]” and in the data set “in vitro [19]” were 0.66 L/h/kg, 2.04 L/h/kg and 0.48 L/h/kg, respectively. Moreover, the unbound share (fraction unbound) in the data set “in vitro [20]” was 0.09; in “in vitro [21]”, 0.05; in “in vitro [22]”, 0.134. For the same compound, the efflux ratio in the data set “in vitro [23]” was found to be 1.5. The Papp A→B in “in vitro [24]” was determined as 110 nm/s. The solubility in “physchem [25]” worked out at 0.053 mg/mL (≈ 141 µM). In addition, the logD in the data set “physchem [26]” stood at 2.5. Also, the inhibition in vivo at 10 mg/kg in the data set filed under Mus musculus [27] was determined as 60%. Further, in the data set listed under Mus musculus [28], the inhibition in vivo at 30 mg/kg amounted to 72%. For the same compound, the inhibition in vivo at 70 mg/kg in the data set filed under Mus musculus [29] was determined as 88%. The inhibition in vivo at 100 mg/kg in the data set listed under Mus musculus [30] amounted to 77%.

Take `O=C(Nc1ccnc(NC(=O)[C@H]2C[C@H]2F)c1)c1c(F)cccc1Cl`: the bioavailability in the data set “in vivo [12]” was found to be 100%. For the same compound, in “in vivo [13]”, the Vd was determined as 1.2 L/kg. In “in vivo [14]”, the half-life is 0.5 h. In “in vivo [15]”, this compound showed a clearance of 2.34 L/h/kg. Also, the CLhep predicted was 1.2 L/h/kg in the data set “in vitro [17]”, 3.84 L/h/kg in “in vitro [18]” and 0.24 L/h/kg in “in vitro [19]”. The free fraction (fraction unbound) in the data set “in vitro [20]” was 0.122; in “in vitro [21]”, 0.036; in the data set “in vitro [22]”, 0.066. In “in vitro [23]”, the efflux ratio worked out at 0.4. Moreover, in the data set “in vitro [24]”, the Papp A→B came to 300 nm/s. Further, the solubility in the data set “physchem [25]” was 0.028 mg/mL (≈ 79.6 µM).

As for `N#Cc1cc(Cl)c(C(=O)Nc2ccnc(NC(=O)[C@H]3C[C@H]3F)c2)c(Cl)c1`, in the data set “in vivo [6]”, the highest level (Cmax) was 143 µM. This compound gave an AUC in the data set “in vivo [7]” of 1090 µM·h. The same compound showed a bioavailability in “in vivo [12]” of 100%. Also, the Vd in “in vivo [13]” turned out to be 1 L/kg. Also, the half-life in the data set “in vivo [14]” is 4.1 h. The compound further displayed a clearance in the data set “in vivo [15]” of 0.276 L/h/kg. Besides, the CLhep predicted in the data set “in vitro [17]” is 0.6 L/h/kg; in “in vitro [18]” it was 2.16 L/h/kg; in “in vitro [19]”, 0.66 L/h/kg. Moreover, the values for the unbound share (fraction unbound) in “in vitro [20]”, in the data set “in vitro [21]” and in the data set “in vitro [22]” were 0.082, 0.017 and 0.068, respectively. Further, the efflux ratio in “in vitro [23]” was determined as 1.5. For the same compound, in the data set “in vitro [24]”, the Papp A→B is 120 nm/s. Further, the solubility in “physchem [25]” stood at 0.074 mg/mL (≈ 188 µM). Further, the logD in “physchem [26]” worked out at 2.8.

Turning to `O=C(Nc1ccnc(NC(=O)C2CC2)c1)c1c(Cl)cc(-c2nnc[nH]2)cc1Cl`, the concentration in solution in the data set “physchem [25]” (solubility) came to 0.002 mg/mL (≈ 4.79 µM).

Consider `O=C(Nc1ccnc(NC(=O)C2CC2)c1)c1c(Cl)cccc1Cl`, for which the clearance stood at 3.9 L/h/kg in the data set “in vivo [31]”, 3.9 L/h/kg in the data set “in vivo [11]” and 1.26 L/h/kg in the data set “in vivo [15]”. In the data set “in vivo [32]”, this compound returned an AUC of 2.6 µM·h. Further, the volume of distribution (Vd) in the data set “in vivo [8]” was determined as 0.6 L/kg; in “in vivo [13]”, 1.1 L/kg. Moreover, the bioavailability in “in vivo [9]” came out at 73%; in the data set “in vivo [12]”, 100%. In addition, the half-life in the data set “in vivo [10]” is 0.3 h; in the data set “in vivo [14]”, 1.2 h. The CLhep predicted was 0.96 L/h/kg in the data set “in vitro [17]”, 3.84 L/h/kg in “in vitro [18]” and 0.42 L/h/kg in “in vitro [19]”. Further, the unbound share (fraction unbound) in “in vitro [20]” was 0.041; in the data set “in vitro [21]”, 0.044; in the data set “in vitro [22]”, 0.049. The efflux ratio in “in vitro [23]” was 0.4. This compound also had a Papp A→B in the data set “in vitro [24]” of 300 nm/s. In the data set “physchem [26]”, this compound had a logD of 3.4.

Regarding `O=C(Nc1ccnc(NC(=O)[C@H]2C[C@H]2F)c1)c1c(Cl)cccc1Cl`, the peak level in the data set “in vivo [6]” (Cmax) was 47 µM. The same compound came in with an area under the curve (AUC) in “in vivo [7]” of 50 µM·h. In “in vivo [12]”, the bioavailability was determined as 100%. The compound further displayed a Vd in “in vivo [13]” of 1 L/kg. In the data set “in vivo [14]”, this compound had a half-life of 1.8 h. This compound also had a clearance in the data set “in vivo [15]” of 0.9 L/h/kg. Besides, the CLhep predicted in “in vitro [17]” is 1.26 L/h/kg; in the data set “in vitro [18]”, 3.3 L/h/kg; in “in vitro [19]”, 0.66 L/h/kg. Further, the free fraction (fraction unbound) in “in vitro [20]” was 0.048; in “in vitro [21]” it was 0.018; in the data set “in vitro [22]” it was 0.025. The efflux ratio in “in vitro [23]” is 0.8. The Papp A→B in “in vitro [24]” amounted to 200 nm/s. Moreover, the solubility in the data set “physchem [25]” stood at 0.126 mg/mL (≈ 342 µM). The same compound gave a logD in “physchem [26]” of 2.9.
